Assay results reported in PubChem BioAssay AID248 (DTP/NCI, 2004).
“And” between values parts separate entries of the source, which are not always exact repeats. Identical values can stand only once. Inconclusive results and toxic doses are left out. Rule as the data show it: active = T/C of 150% or more; inactive = T/C below 125%.

Tested on: L1210 leukemia ip in BDF1 mice, survival T/C
Assay: NCI In Vivo Anticancer Drug Screen. Data for tumor model L1210 Leukemia (intraperitoneal) in B6D2F1 (BDF1) mice
Settings: endpoint: mean survival time, higher = longer survival
Outline: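 Tumor cells were implanted, animals were treated, and survival was followed. The result divides the treated measurement by the vehicle-control measurement.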

[1] = dose: 50.0 mg/kg/injection, schedule: Q01DX009 (ip), vehicle: saline with Tween-80
[2] = dose: 100.0 mg/kg/injection, schedule: Q01DX009 (ip), vehicle: saline with Tween-80
[3] = dose: 200.0 mg/kg/injection, schedule: Q01DX009 (ip), vehicle: saline with Tween-80
[4] = dose: 25.0 mg/kg/injection, schedule: Q01DX009 (ip), vehicle: saline with Tween-80
[5] = dose: 100.0 mg/kg/injection, schedule: Q04DX003 (ip), vehicle: saline with Tween-80
[6] = dose: 100.0 mg/kg/injection, schedule: Q04DX003 (ip), vehicle: Klucel (hydroxypropylcellulose) (HPC)
[7] = dose: 200.0 mg/kg/injection, schedule: Q04DX003 (ip), vehicle: Klucel (hydroxypropylcellulose) (HPC)
[8] = dose: 400.0 mg/kg/injection, schedule: Q04DX003 (ip), vehicle: Klucel (hydroxypropylcellulose) (HPC)
[9] = dose: 100.0 mg/kg/injection, schedule: Q04DX003 (ip), vehicle: saline
[10] = dose: 200.0 mg/kg/injection, schedule: Q04DX003 (ip), vehicle: saline
[11] = dose: 400.0 mg/kg/injection, schedule: Q04DX003 (ip), vehicle: saline

Measured: T/C

N#CCCC1C2CCC(C2)C1C#N (stereo not given)
inactive: dose: 3.0 mg/kg/injection, schedule: Q01DX009 (ip), vehicle: Klucel (hydroxypropylcellulose) (HPC) 96 % of control | dose: 3.0 mg/kg/injection, schedule: Q04DX003 (ip), vehicle: Klucel (hydroxypropylcellulose) (HPC) 96 % of control | dose: 6.0 mg/kg/injection, schedule: Q01DX009 (ip), vehicle: Klucel (hydroxypropylcellulose) (HPC) 96 % of control | dose: 6.0 mg/kg/injection, schedule: Q04DX003 (ip), vehicle: Klucel (hydroxypropylcellulose) (HPC) 98 % of control | dose: 12.0 mg/kg/injection, schedule: Q01DX009 (ip), vehicle: Klucel (hydroxypropylcellulose) (HPC) 98 % of control | dose: 12.0 mg/kg/injection, schedule: Q04DX003 (ip), vehicle: Klucel (hydroxypropylcellulose) (HPC) 98 % of control | dose: 12.5 mg/kg/injection, schedule: Q04DX003 (ip), vehicle: Klucel (hydroxypropylcellulose) (HPC) 105 % of control

CCC(=O)C(C)(C)c1ccccc1 (tested in a mixture with another compound)
inactive: [1] 95 % of control | [2] 88 % of control | [3] 96 % of control

O=C(CC(O)(C(F)(F)F)C(F)(F)F)c1ccc(C(O)CC(O)(C(F)(F)F)C(F)(F)F)cc1 (stereo not given)
inactive: dose: 25.0 mg/kg/injection, schedule: Q01DX009 (ip), vehicle: gum acacia 106 % of control | dose: 25.0 mg/kg/injection, schedule: Q04DX003 (ip), vehicle: gum acacia 102 % of control | dose: 50.0 mg/kg/injection, schedule: Q01DX009 (ip), vehicle: gum acacia 89 % of control | dose: 50.0 mg/kg/injection, schedule: Q04DX003 (ip), vehicle: gum acacia 90 % of control | dose: 100.0 mg/kg/injection, schedule: Q04DX003 (ip), vehicle: gum acacia 93 % of control and 98 % of control

CCCCCCCCCC(O)CCCC (stereo not given)
inactive: [4] 108 % of control | [1] 97 % of control | [2] 94 % of control and 98 % of control | [5] 98 % of control | dose: 200.0 mg/kg/injection, schedule: Q04DX003 (ip), vehicle: saline with Tween-80 98 % of control | dose: 400.0 mg/kg/injection, schedule: Q04DX003 (ip), vehicle: saline with Tween-80 96 % of control

CC(=O)OC1CCC2(C)C(=CCC3C2CCC2(C)C3CC3C(c4ccccc4Br)=NN(c4ccccc4)C32C#N)C1 (stereo not given)
inactive: dose: 3.0 mg/kg/injection, schedule: Q04DX002 (ip), vehicle: Klucel (hydroxypropylcellulose) (HPC) 106 % of control | dose: 6.0 mg/kg/injection, schedule: Q04DX002 (ip), vehicle: Klucel (hydroxypropylcellulose) (HPC) 94 % of control and 107 % of control | dose: 12.0 mg/kg/injection, schedule: Q04DX002 (ip), vehicle: Klucel (hydroxypropylcellulose) (HPC) 100 % of control | dose: 25.0 mg/kg/injection, schedule: Q04DX002 (ip), vehicle: Klucel (hydroxypropylcellulose) (HPC) 104 % of control | dose: 50.0 mg/kg/injection, schedule: Q04DX002 (ip), vehicle: Klucel (hydroxypropylcellulose) (HPC) 114 % of control

CCN(CC)C(=O)SCCSC(=O)N(CC)CC
inactive: [4] 110 % of control | [1] 110 % of control | [2] 93 % of control

CCN(CC)C(=S)[S][Pb]([c]1ccccc1)([c]1ccccc1)[c]1ccccc1
inactive: dose: 100.0 mg/kg/injection, schedule: Q01DX001 (ip), vehicle: steriod suspending solution 97 % of control | dose: 200.0 mg/kg/injection, schedule: Q01DX001 (ip), vehicle: steriod suspending solution 92 % of control

N#CC(CC(=O)OCc1ccccc1)NC(=O)OCc1ccccc1 (stereo not given)
inactive: [2] 92 % of control | [3] 89 % of control | dose: 400.0 mg/kg/injection, schedule: Q01DX009 (ip), vehicle: saline with Tween-80 97 % of control

CN(C)c1ccc(/C=C2\CCC/C(=C\c3ccc(N(C)C)cc3)C2=O)cc1
inactive: [6] 96 % of control | [7] 96 % of control | [8] 92 % of control

Nc1nc(N)c2cc(CNc3ccc(Cl)c(C(=O)NC(CC(=O)O)C(=O)O)c3)cnc2n1 (stereo not given)
inactive: dose: 100.0 mg/kg/injection, schedule: Q01DX009 (ip), vehicle: saline 95 % of control | [9] 106 % of control | dose: 200.0 mg/kg/injection, schedule: Q01DX009 (ip), vehicle: saline 94 % of control | [10] 93 % of control | dose: 400.0 mg/kg/injection, schedule: Q01DX009 (ip), vehicle: saline 89 % of control | [11] 97 % of control

CC(C)(C)c1cccc(C(C)(C)C)c1O
inactive: [9] 102 % of control | [10] 98 % of control | [11] 90 % of control

N/C(=N/O)c1cn(C2OC(CO)C(O)C2O)c2ncnc(NO)c12 (stereo not given)
inactive: dose: 12.5 mg/kg/injection, schedule: Q01DX009 (ip), vehicle: saline 121 % of control | dose: 25.0 mg/kg/injection, schedule: Q01DX009 (ip), vehicle: saline 86 % of control

c1ccc(-c2nnn(CCn3nnc(-c4ccccc4)n3)n2)cc1
inactive: [6] 102 % of control | [7] 104 % of control | [8] 98 % of control

NC(N)=NN=C1c2ccccc2-c2ccccc21
inactive: dose: 1.0 mg/kg/injection, schedule: Q01DX Z (ip), vehicle: methylcellulose (MC) 107 % of control | dose: 2.0 mg/kg/injection, schedule: Q01DX Z (ip), vehicle: methylcellulose (MC) 102 % of control | dose: 4.0 mg/kg/injection, schedule: Q01DX Z (ip), vehicle: methylcellulose (MC) 103 % of control | dose: 4.0 mg/kg/injection, schedule: Q01DX Z (oral), vehicle: methylcellulose (MC) 95 % of control | dose: 8.0 mg/kg/injection, schedule: Q01DX Z (ip), vehicle: methylcellulose (MC) 107 % of control | dose: 16.0 mg/kg/injection, schedule: Q01DX Z (oral), vehicle: methylcellulose (MC) 107 % of control

O=C1CSC(=NCCN=C2NC(=O)CS2)N1
inactive: dose: 100.0 mg/kg/injection, schedule: Q01DX001 (ip), vehicle: saline 104 % of control | dose: 200.0 mg/kg/injection, schedule: Q01DX001 (ip), vehicle: saline 111 % of control | dose: 400.0 mg/kg/injection, schedule: Q01DX001 (ip), vehicle: saline 102 % of control

C=C(C)C1Cc2c(ccc3c2OC2COc4cc(OC)c(OC)cc4C2(O)C3=O)O1 (stereo not given)
inactive: dose: 12.5 mg/kg/injection, schedule: Q01DX009 (ip), vehicle: carboxymethylcellulose (CMC) 107 % of control

O=C(Nc1cccc(F)c1)Nc1ccc2ccccc2c1
inactive: dose: 100.0 mg/kg/injection, schedule: Q01DX009 (ip), vehicle: Klucel (hydroxypropylcellulose) (HPC) 105 % of control | dose: 200.0 mg/kg/injection, schedule: Q01DX009 (ip), vehicle: Klucel (hydroxypropylcellulose) (HPC) 97 % of control | dose: 400.0 mg/kg/injection, schedule: Q01DX009 (ip), vehicle: Klucel (hydroxypropylcellulose) (HPC) 97 % of control

CC(C)P(=S)(OCc1ccccc1)C(C)C
inactive: dose: 100.0 mg/kg/injection, schedule: Q01DX001 (ip), vehicle: saline with Tween-80 99 % of control | dose: 200.0 mg/kg/injection, schedule: Q01DX001 (ip), vehicle: saline with Tween-80 98 % of control | dose: 400.0 mg/kg/injection, schedule: Q01DX001 (ip), vehicle: saline with Tween-80 105 % of control

CCOP(=O)(OCC)SC=C(Cl)Cl
inactive: dose: 25.0 mg/kg/injection, schedule: Q04DX002 (ip), vehicle: saline with Tween-80 94 % of control | dose: 50.0 mg/kg/injection, schedule: Q04DX002 (ip), vehicle: saline with Tween-80 91 % of control | dose: 100.0 mg/kg/injection, schedule: Q04DX002 (ip), vehicle: saline with Tween-80 94 % of control and 95 % of control

CC1(C)C2CCC(C2)C12CC(F)(F)C(F)(F)S2 (stereo not given)
inactive: dose: 12.5 mg/kg/injection, schedule: Q01DX009 (ip), vehicle: saline with Tween-80 97 % of control | [4] 100 % of control | dose: 25.0 mg/kg/injection, schedule: Q04DX003 (ip), vehicle: saline with Tween-80 101 % of control | dose: 50.0 mg/kg/injection, schedule: Q04DX003 (ip), vehicle: saline with Tween-80 101 % of control | [5] 103 % of control
